Test results reported in patent US5959123A, “3,4-Disubstituted azetidin-2-one derivatives useful as cysteine proteinase regulators” (Synphar Laboratories, Inc., priority 1997, dated 1999).

What was measured:
[1] = target: cathepsin L (Rattus norvegicus, UniProt P07154); test: In vitro assay for cathepsin L inhibition; type: biochemical; details: r rat cathepsin L; pH 5.0; 10 min incubation at room temperature; substrate N-CBZ-Phe-Arg-AMC (1 mM, 20 μl)
Procedure: To a 170 μl of enzyme-buffer mixture (enzyme: r rat cathepsin L, diluted to give approximate 15 F units/min, buffer: 58.8 mM sodium citrate, 1.18 mM EDTA, 235 mM sodium chloride, 5 mM DTT, pH 5.0) a 10 μL of inhibitor (dissolved in DMSO) was added. After 10 min of incubation at room temperature, a 20 μl of 1 mM substrate (N-CBZ-Phe-Arg-AMC, dissolved in DMSO) was added to initiate reaction. Reading is followed up for 10 min at the fluoroscan reader (excitation at 380 nm emission at 460 nm).
(§1) A plot of percentage of inhibition vs inhibitor concentration is obtained, and IC50 is determined using a linear regression calculation (concentration of inhibitor which will give 50% inhibition).

[2] = target: cathepsin B (Rattus norvegicus, UniProt P00787); test: In vitro assay for cathepsin B inhibition; type: biochemical; details: r rat cathepsin B; pH 5.1; 10 min incubation at room temperature; substrate N-CBZ-Phe-Arg-AMC (5 mM, 20 μl)
Procedure: The compounds of formula I were tested for inhibition of cathepsin B using the known method (A. J. Barret et al., Biochem. J. 1982, 201, 189-198). To a 170 μl of enzyme-buffer mixture (enzyme: r rat cathepsin B, diluted to give approximate 10 F units/min, buffer: 56 mM sodium acetate, 1.124 mM EDTA, 10 mM DTT, pH 5.1) a 10 μL of inhibitor (dissolved in DMSO) was added. After 10 min of incubation at room temperature, a 20 μl of 5 mM substrate (N-CBZ-Phe-Arg-AMC, dissolved in DMSO) was added to initiate reaction. Reading is followed up for 10 min at the fluoroscan reader (excitation at 380 nm emission at 460 nm).
as §1

cathepsin L, sequence (P07154 114-334): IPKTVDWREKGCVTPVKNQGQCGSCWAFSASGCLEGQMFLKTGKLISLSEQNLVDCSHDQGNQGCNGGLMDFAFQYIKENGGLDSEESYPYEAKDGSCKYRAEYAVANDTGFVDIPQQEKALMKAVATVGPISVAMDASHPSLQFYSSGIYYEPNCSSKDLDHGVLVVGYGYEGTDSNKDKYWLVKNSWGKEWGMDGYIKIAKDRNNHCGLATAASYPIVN
cathepsin B, sequence (P00787 80-333 limits assumed): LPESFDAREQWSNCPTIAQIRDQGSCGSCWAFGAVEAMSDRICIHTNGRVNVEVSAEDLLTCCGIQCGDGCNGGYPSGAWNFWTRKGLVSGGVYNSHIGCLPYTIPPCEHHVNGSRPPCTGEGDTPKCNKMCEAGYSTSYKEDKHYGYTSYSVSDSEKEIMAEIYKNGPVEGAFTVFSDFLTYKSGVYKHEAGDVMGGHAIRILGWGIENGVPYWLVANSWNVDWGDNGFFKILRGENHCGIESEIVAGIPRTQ

| Compound | IC50 [1] [µM] | IC50 [2] [µM] |
| --- | --- | --- |
| CC(=O)O[C@@H]1NC(=O)[C@H]1NC(=O)[C@H](Cc1ccccn1)NC(=O)OCc1ccccc1 [Example 6, (3S,4S)-3-(N-benzyloxycarbonyl-β-(2-pyridyl)-L-alanyl)-amino-4-acetoxy-azetidin-2-one] | 12.1 | > 50 |
| CC(=O)O[C@@H]1NC(=O)[C@H]1NC(=O)[C@H](CCCNC(N)=O)NC(=O)CCc1ccccc1 [Example 23, (3S,4S)-3-{N-(3-phenylpropionyl)-L-citrullinyl}-amino-4-acetoxy-azetidin-2-one] | 11.5 | 11 |
| O=C(CCc1ccccc1)N[C@@H](Cc1ccc2ccccc2c1)C(=O)N[C@@H]1C(=O)NC1OC1CCCCC1 (stereo partly drawn) [Example 19, (3S,4SR)-3{N-(3-phenylpropionoyl)-β-(2-naphthyl)-L-alanyl}-amino-4-cyclohexyloxy-azetidin-2-one] | 0.39 | 1.95 |
| CC(=O)O[C@@H]1NC(=O)[C@H]1NC(=O)[C@H](Cc1ccc2ccccc2c1)NS(=O)(=O)/C=C/c1ccccc1 [Example 20, (3S,4S)-3-{N-(trans-2-phenyl-eth-1-enesulfonyl)-β-(2-naphthyl)-L-alanyl}-amino-4-acetoxy-azetidin-2-one] | 0.079 | 0.395 |
| COc1ccc(C[C@H](NC(=O)OCc2ccccc2)C(=O)N[C@@H]2C(=O)N[C@H]2OC(C)=O)cc1 [Example 10, (3S,4S)-3-{N-benzyloxycarbonyl-β-(4-methoxyphenyl)-L-alanyl}-amino-4-acetoxy-azetidin-2-one] | 0.057 | 7.51 |
| CC(=O)O[C@@H]1NC(=O)[C@H]1NC(=O)[C@H](Cc1cccnc1)NC(=O)OCc1ccccc1 [Example 5, (3S,4S)-3-{N-benzyloxycarbonyl-β-(3-pyridyl)-L-alanyl}-amino-4-acetoxy-azetidin-2-one] | 8.26 | > 50 |
